# Reference: patent US8992990B2, “Magnetic nanocomposite for inhibiting/treating cancer and method for fabricating the same” (Chang Gung University, priority 2009, dated 2015)
# What was measured:
# [1] = test system: mouse glioma cells (C6); test: In vitro toxicity / cell growth inhibition, XTT assay, C6 cells; format: cell-based; settings: 100 μM, 12 hours later
# Description: Place 150 μL of a mixture liquid containing 10000 mouse glioma cells (C6) into every well of a 96-well culture plate. Place the culture plates in a humidified incubator at a temperature of 37 C.° and with 5% CO2 to enable adherent growth of the cells. […] Once cell counting begins, remove RPMI1640 and add 120 μL of an XTT reaction liquid (2,3-Bis(2-methoxy-4-nitro-5-sulfophenyl)-2H-tetrazolium-5-carboxanili de inner salt).
# [2] = test system: human glioma cells (U87); test: In vitro toxicity / cell growth inhibition, XTT assay, U87 cells; format: cell-based; settings: 100 μM, 72 hours later
# Description: Place 150 μL of a mixture liquid containing 10000 human glioma cells (U87) into every well of a 96-well culture plate. Place the culture plates in a humidified incubator at a temperature of 37 C.° and with 5% CO2 to enable adherent growth of the cells. […] Once cell counting begins, remove RPMI1640 and add 120 μL of an XTT reaction liquid (2,3-Bis(2-methoxy-4-nitro-5-sulfophenyl)-2H-tetrazolium-5-carboxanili de inner salt).
# [3] = Solubility in water
# [4] = Storage stability, residual activity by Bratton-Marshall assay
# Text: Use the Bratton-Marshall assay to detect the residual activities after the storages of 1-30 days for comparing the storage stabilities. Refer to FIGS. 5(a)-5(c).
smiles,measurement,setting,value
"O=NN(CCCl)C(=O)NCCCl [BCNU, 1,3-bis(2-chloroethyl)-1-nitrosourea]",C6 cell growth-inhibition ratio,[1],53%
same,U87 cell growth-inhibition ratio,[2],49%
same,solubility in water,[3],low solubility in water
same,half-life,[4]; storing at 4° C.,300 h
same,half-life,[4]; storing at 25° C.,22 h
same,half-life,[4]; storing at 37° C.,12 h
same,remains after storage,[4]; stored for 30 days,22%
